The values that follow come from patent publication US7365099B2, “Animal body fat control” (Wisconsin Alumni Research Foundation, priority 2001, dated 2008).

Experiment [1] has as its system lipoprotein lipase associated with 3T3-L1 adipocytes. The experiment is described as follows: Heparin-releasable lipoprotein lipase (LPL) activity in 3T3-L1 adipocyte cultures. It is filed as cell-based. The following applies: for potency in reducing LPL (rank order, in words): FIG. 5B, 20–24 hours, all test compounds at 100 μM; for LPL activity (in words): CLA 100 μM, aspirin 100 μM. Here is the method: Using the same model, the effects on LPL of aspirin and NDGA, as compared to CLA, were tested. 3T3-L1 preadipocytes were cultured as described. […] Briefly, 3T3-L1 preadipocytes were grown to confluence at 37° C. in Dulbecco's Modified Eagle's Medium (DMEM) with 10% fetal bovine serum (FBS). At two days post-confluence (designated “day 0”) cell differentiation was induced with a mixture of methylisobutylxanthine (0.5 mM), dexamethasone (0.25 μM), and insulin (1 μg/ml) in DMEM containing 10% FBS. On “day 2” this medium was replaced with DMEM medium containing 10% FBS and insulin only. On “day 4” and thereafter the medium was DMEM plus 10% FBS only; this medium was subsequently replaced with fresh medium at 2 day intervals.
First, aspirin was tested along with PGE2, which is the final product of cyclooxygenase. Cells were treated with testing compounds for 4 hours before harvesting at day 6 or 7 post differentiation. The concentration of CLA, aspirin, and PGE2 were 1×10^−4 M, 1×10^−4 M, and 1×10^−6 M respectively. […] All dishes (including control) contained the same concentration of albumin (1×10^−4 M) and ethanol (final concentration of 0.1%).
Heparin-releasable lipoprotein lipase (LPL) activity (EC 3.1.1.34, 10 U heparin/ml media for 1 hr at 37° C.) was measured as described. Nilsson-Ehle, P. and M. C. […] Protein was determined using Bio-Rad DC Protein assay kit.
In a next set of cell culture experiments, shown in FIG. 4, cells were treated with testing compounds for 20–24 hours at day 7 post differentiation. […] CLA was complexed with albumin, and aspirin and NDGA were dissolved in ethanol. All dishes including control contained the same concentration of albumin (1×10^−4 M) and ethanol (final concentration of 0.05%). Numbers are mean±S.E. (n=7–8, collected from 2 independent experiments).
(§1) Cells were treated with other known lipoxygenase inhibitors. Cells were treated with testing compounds for 20–24 hours at day 6 or 7 post differentiation. Based on the ED50 of these inhibitors, various doses were first tested. In FIG. 5A, the concentration of SHA, CLA, ETYA, indomethacin, NDGA and AA861 were 1×10^−3 M, 1×10^−4 M, 1×10^−4 M, 1×10^−4 M, 1×10^−5 M and 1×10^−6 M, respectively. In FIG. 5B, the cells were treated with the test compounds at 1×10^−4 M. CLA was complexed with albumin and others were dissolved in ethanol. All dishes including control contained the same concentration of albumin (1×10^−4 M) and ethanol (final concentration of 0.1%). Numbers are mean±S.E. (in FIG. 5A, n=7–8, collected from 2 independent experiments, in FIG. 5B, n=11–12, collected from 3 independent experiments). […] Indomethacin blocks both cyclooxygenase and lipoxygenase, the two primary enzymes in the arachidonic acid metabolic cascade.

Another experiment has as its system 3T3-L1 adipocytes. The experiment is described as follows: Glycerol released from 3T3-L1 adipocytes. In kind it is cell-based. The following applies: treated 20–24 hours. The procedure: Fat reduction by CLA is partly due to inhibition of lipoprotein lipase (LPL) in adipocytes, as has been previously shown using a 3T3-L1 adipocyte cell culture model. Using the same model, the effects on LPL of aspirin and NDGA, as compared to CLA, were tested. 3T3-L1 preadipocytes were cultured as described. Frost, S. C. and M. D. Lane, J. Biol. Chem. 260: 2646–2652(1985). Briefly, 3T3-L1 preadipocytes were grown to confluence at 37° C. in Dulbecco's Modified Eagle's Medium (DMEM) with 10% fetal bovine serum (FBS). At two days post-confluence (designated “day 0”) cell differentiation was induced with a mixture of methylisobutylxanthine (0.5 mM), dexamethasone (0.25 μM), and insulin (1 μg/ml) in DMEM containing 10% FBS. On “day 2” this medium was replaced with DMEM medium containing 10% FBS and insulin only. On “day 4” and thereafter the medium was DMEM plus 10% FBS only; this medium was subsequently replaced with fresh medium at 2 day intervals.
as §1, with “cascade. […] When 100 μM of these were tested, the potency was AA861>NDGA>ETYA>Indomethacin>CLA. […]” for “cascade.”

Experiment [2] in a line: Food intake of mice on NDGA/CLA diets (Experiment 2). To be noted: male ICR mice, mean±S.E., N=5–6. It is filed as in vivo. The procedure:
(§2) After a 5 day adaptation period, four-week-old weanling male ICR mice (Harlan Sprague-Dawley) were randomly separated into groups that were fed one of the treatment diets for 4 weeks. Mice were fed either a control diet (as in Experiment 1), or a diet supplemented with CLA (0.1%), NDGA (0.1% or 0.005%), or CLA (0.1%) with NDGA (0.1% or 0.005%). The lower level of NDGA was chosen based on the level used as an antioxidant in the food industry. Supplemental NDGA was added to diets at the expense of sugar. Diet was stored at −20° C. until use. Mice were housed individually in a windowless room with a 12-h light-dark cycle in strict accordance to guidelines established by the Research Animal Resources Center of University of Wisconsin-Madison. Diet and water, available ad libitum, were freshly provided three times per week.

The subject of a further experiment is fat tissue. To be noted: reported by Gowri et al. 2000; cited from earlier work.
Experiment [3] is described as follows: Body weights of mice on NDGA/CLA diets (Experiment 2, FIG. 2). In kind it is in vivo. To be noted: male ICR mice. Here is the method: as §2
For experiment [4], the system named is ICR mice. Nature of the experiment: Body composition analysis of mice on NDGA/CLA diets (Experiment 2). In kind it is in vivo. To be noted: male ICR mice; for % Ash / ECW (empty carcass weight): mean±S.E., N=5–6; for body composition versus control (in words): 4 weeks. The procedure:
For body composition analyses, animals were sacrificed, gut contents were removed (to obtain empty carcass weight, “ECW”), and the carcasses frozen at −20° C. Frozen carcasses were chopped, and freeze dried to determine water content. Each dried carcass was ground to give a homogeneous sample before further analysis. Total nitrogen was analyzed by the Kjeldahl method. Helrich, K., Official Methods of Analysis, 15th ed.: 935–937(1990). Carcass fat content was measured by extraction with diethyl ether overnight using a Soxhlet apparatus. Total ash content was determined by incineration (500–600° C., overnight).
as §2

The test system of experiment [5] is ICR mice. The experiment is described as follows: Body composition analysis of mice on aspirin/CLA diets (Experiment 1). To be noted: female ICR mice, 4 weeks. It is filed as in vivo. The text has this:
After a 5 day adaptation period, four-week-old weanling female ICR mice (Harlan Sprague-Dawley) were randomly separated into groups that were fed one of the treatment diets for 4 weeks. Mice were fed either a control diet, or a diet supplemented with aspirin alone (0.03%), 0.5% CLA alone, or CLA with additional aspirin (0.006% [“Asp1”] or 0.03% [“Asp2”]). The control diet was semi-purified TD94060 diet, 99% basal mix from Harlan Teklad, Madison, Wis. that contained (ingredient, g/kg): sucrose, 476; casein, “vitamin-free” test, 210; corn starch, 150; DL-methionine, 3; corn oil 55; cellulose, 50; mineral mix, AIN-76, 35; vitamin mix, AIV-76A, 10; calcium carbonate, 4; choline bitartrate, 2; and ethoxyquin, 0.1. The aspirin doses reflect an average human dose (0.03%) or a recommended dose for preventing cardiovascular disease (0.006%). Supplemental CLA was added to diets at the expense of corn oil. Diet was stored at −20° C. until use. […]
For body composition analyses, animals were sacrificed, gut contents were removed (to obtain empty carcass weight, “ECW”), and the carcasses frozen at −20° C. […] Total nitrogen was analyzed by the Kjeldahl method. […] Carcass fat content was measured by extraction with diethyl ether overnight using a Soxhlet apparatus. Total ash content was determined by incineration (500–600° C., overnight).

A short description of experiment [6]: Body weights of mice on aspirin/CLA diets (Experiment 1, FIG. 1). In kind it is in vivo. The following applies: female ICR mice, 0.5% CLA and/or 0.03% aspirin. The text has this: After a 5 day adaptation period, four-week-old weanling female ICR mice (Harlan Sprague-Dawley) were randomly separated into groups that were fed one of the treatment diets for 4 weeks. Mice were fed either a control diet, or a diet supplemented with aspirin alone (0.03%), 0.5% CLA alone, or CLA with additional aspirin (0.006% [“Asp1”] or 0.03% [“Asp2”]). The control diet was semi-purified TD94060 diet, 99% basal mix from Harlan Teklad, Madison, Wis. that contained (ingredient, g/kg): sucrose, 476; casein, “vitamin-free” test, 210; corn starch, 150; DL-methionine, 3; corn oil 55; cellulose, 50; mineral mix, AIN-76, 35; vitamin mix, AIV-76A, 10; calcium carbonate, 4; choline bitartrate, 2; and ethoxyquin, 0.1. The aspirin doses reflect an average human dose (0.03%) or a recommended dose for preventing cardiovascular disease (0.006%). Supplemental CLA was added to diets at the expense of corn oil. Diet was stored at −20° C. until use. Mice were housed individually in a windowless room with a 12-h light-dark cycle in strict accordance to guidelines established by the Research Animal Resources Center of University of Wisconsin-Madison. Diet and water, available ad libitum, were freshly provided three times per week.

Setting [7] is: 4 weeks diet with 0.005% NDGA, with or without 0.1% CLA.
[8] abbreviates: 4 weeks diet with 0.1% CLA and/or 0.1% NDGA.
[9] abbreviates: diet with 0.005% NDGA, with or without 0.1% CLA.
Where [10] appears, read: diet with 0.1% CLA and/or 0.1% NDGA.
[11] abbreviates: 0.005% NDGA, with or without 0.1% CLA.
[12] abbreviates: FIG. 4, treated 20–24 hours at day 7 post differentiation, NDGA 50 μM.
Where [13] appears, read: FIG. 3, treated 4 hours, day 6 or 7 post differentiation, PGE2 1 μM.

Regarding `CC1=C(C)C(=O)C(CCCCC#CCCCC#CCO)=C(C)C1=O` [AA861, 2-[12-hydroxydodeca-5,10-diynyl]-3,5,6-trimethyl-p-benzoquinone], the “potency in reducing LPL (rank order, in words)” value (shortened to “potency in reducing LPL”) in experiment [1] was “AA861>NDGA>ETYA>Indomethacin>CLA”. In addition, in the experiment with 3T3-L1 adipocytes, the “glycerol released from the cell (in words)” value is recorded as “reduced the glycerol release”.

As to `CC(Cc1ccc(O)c(O)c1)C(C)Cc1ccc(O)c(O)c1` (stereo not shown) [NDGA, nordihydroguaiaretic acid], the “food intake, Total” value in experiment [2] (setting [7]) is 136.3 ± 1.3 g/mouse; in experiment [2] (setting [8]), 137.9 ± 1.9 g/mouse. For the same compound, the “food intake, Week 1” value turned out to be 33.8 ± 0.6 g/mouse in experiment [2] (setting [9]) and 35.2 ± 0.7 g/mouse in experiment [2] (setting [10]). Besides, the “food intake, Week 4” value in experiment [2] (setting [9]) is given as 34.0 ± 0.4 g/mouse; in experiment [2] (setting [10]) it was 33.8 ± 1.0 g/mouse. The “lipolysis in fat tissue (in words)” value in the experiment on fat tissue was “reduce lipolysis”. The “body weights (in words)” value in experiment [3] (setting [11]) and in experiment [3] (0.1% CLA and/or 0.1% NDGA) was “no difference in body weights” throughout. Besides, in experiment [1] (setting [12]), the “LPL activity (in words)” value is given as “significantly reduced LPL activity”. Also, the “potency in reducing LPL” value in experiment [1] was “AA861>NDGA>ETYA>Indomethacin>CLA”. In addition, the “% Ash” value came to 3.29 ± 0.12% in the experiment with ICR mice [4] (setting [7]) and 3.43 ± 0.09% in the experiment on ICR mice [4] (setting [8]). Also, the “ECW (empty carcass weight)” value was determined as 32.2 ± 0.6 g in the experiment on ICR mice [4] (setting [7]) and 31.9 ± 1.3 g in the experiment with ICR mice [4] (setting [8]). For the same compound, the “body composition versus control (in words)” value was “no effect on body composition” with ICR mice [4] (setting [11]); “reduced fat (p<0.209) and increased water and protein” in the experiment on ICR mice [4] (0.1% CLA and/or 0.1% NDGA). Further, in the experiment on 3T3-L1 adipocytes, the “glycerol released from the cell (in words)” value is “reduced the glycerol release”.

Take `CCCCCC#CCC#CCC#CCC#CCCCC(=O)O` [ETYA, 5,8,11,14-eicosatetraynoic acid]: the “potency in reducing LPL” value in experiment [1] was “AA861>NDGA>ETYA>Indomethacin>CLA”.

As for `CC(=O)Oc1ccccc1C(=O)O` [aspirin, Acetylsalicylic acid], in the experiment with ICR mice [5] (0.006% or 0.03% aspirin with 0.5% CLA), the “effect of added aspirin on CLA's effects on body composition (in words)” value was “did not change any of CLA's effects”. In addition, in the experiment with ICR mice [5] (0.5% CLA with or without aspirin, aspirin alone 0.03%), the “body composition versus control (in words)” value is given as “no effect on body composition”. The “body weights, weeks 0 through 3 (in words)” value in experiment [6] is recorded as “no difference in body weights”. Also, the results for the “LPL activity (in words)” value in experiment [1] (setting [13]) and in experiment [1] (setting [12]) were “no effect on LPL” and “no effect”, respectively.

Consider `CCCCC[C@H](O)/C=C/[C@H]1[C@H](O)CC(=O)[C@@H]1C/C=C\CCCC(=O)O` [PGE2, Prostaglandin E2], for which the “LPL activity (in words)” value in experiment [1] (setting [13]) is reported as “no effect on LPL”.

As to `COc1ccc2c(c1)c(CC(=O)O)c(C)n2C(=O)c1ccc(Cl)cc1` [Indomethacin, indomethacin], the “potency in reducing LPL” value in experiment [1] was “AA861>NDGA>ETYA>Indomethacin>CLA”.
